IC50 data for one molecule are collected here from publication PMC8262356, “SLC26A6-selective inhibitor identified in a small-molecule screen blocks fluid absorption in small intestine” (JCI Insight, 2021).

This test concerns the target T1, PAT1 (murine slc26a6) (Mus musculus, UniProt Q8CIW6).
T1 construct: host or cells: Fischer rat thyroid (FRT) cells, lentiviral transduction (pLVX-IRES-mCherry-slc26a6), clonal line FRT-YFP-slc26a6
T1 sequence (Q8CIW6 24-758 limits assumed): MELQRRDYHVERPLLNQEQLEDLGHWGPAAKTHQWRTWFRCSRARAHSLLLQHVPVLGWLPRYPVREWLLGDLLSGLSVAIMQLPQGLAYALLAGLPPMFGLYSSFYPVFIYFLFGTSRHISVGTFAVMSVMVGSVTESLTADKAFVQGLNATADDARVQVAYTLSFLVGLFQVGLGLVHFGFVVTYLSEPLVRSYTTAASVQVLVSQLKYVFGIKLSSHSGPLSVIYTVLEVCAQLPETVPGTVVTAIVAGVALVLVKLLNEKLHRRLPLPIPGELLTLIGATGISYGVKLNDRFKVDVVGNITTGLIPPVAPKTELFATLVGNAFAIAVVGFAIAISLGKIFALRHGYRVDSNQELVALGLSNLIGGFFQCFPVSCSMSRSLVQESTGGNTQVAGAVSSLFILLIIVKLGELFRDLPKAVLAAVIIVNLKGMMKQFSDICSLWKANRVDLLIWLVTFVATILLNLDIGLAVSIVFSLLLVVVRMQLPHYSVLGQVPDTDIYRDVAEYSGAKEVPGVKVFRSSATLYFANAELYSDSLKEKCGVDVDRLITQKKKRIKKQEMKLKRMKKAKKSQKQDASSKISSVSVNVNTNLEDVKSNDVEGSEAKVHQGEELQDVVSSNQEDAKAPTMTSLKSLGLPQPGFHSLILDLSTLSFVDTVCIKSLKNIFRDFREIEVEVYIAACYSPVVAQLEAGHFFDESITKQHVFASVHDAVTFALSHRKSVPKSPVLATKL
Put plainly: PAT1-mediated Cl-/SCN- exchange, YFP fluorescence quenching in FRT cells. The class given is cell-based. The conditions noted are these: read-out: IC50, inhibition of PAT1-mediated Cl-/SCN- exchange. The procedure: As PAT1 functions as a general monovalent anion exchanger, PAT1inh-B01 inhibition was studied for different modes of anion exchange. […] To measure Cl^–/HCO3^– exchange, the time course of cytoplasmic pH was measured, using BCECF as a pH indicator, in response to a gluconate gradient to drive exchange of cytoplasmic Cl^– with extracellular HCO3^– producing cytoplasmic alkalinization (Figure 2B) as done before for DRA and pendrin ([7], [10], [11]).
Figure 2 PAT1inh-B01 inhibition of PAT1-mediated anion exchange. (A) YFP fluorescence quenching curves (left), as in Figure 1B, for inhibition of PAT1-mediated exchange of Cl^– for SCN^–, with concentration dependence of PAT1inh-B01 effect (right) (mean ± SEM, n = 3). (B) Inhibition of Cl^–/HCO3^– exchange measured in BCECF-loaded FRT cells by PAT1inh-B01 (mean ± SEM, n = 16–32). (C) Time course of PAT1 inhibition following addition of 1 μM PAT1inh-B01 to cells (mean ± SEM, n = 3). (D) Effects of second messenger signaling on PAT1-mediated Cl^–/I^– exchange. YFP fluorescence quenching curves (left) and summary data (right) following cell exposure to agonists of cAMP (20 μM forskolin + 200 μM IBMX), cGMP (100 μM 8-Br-cGMP) and Ca^+2 (100 μM ATP), or vehicle control (1% DMSO). Mean ± SEM, n = 16 experiments per group, differences not significant by 1-way ANOVA and post hoc Newman-Keuls multiple comparisons test.

Turning to `Cc1c(Br)c(C(F)(F)F)nn1CC(=O)N1CCc2nc3cc(-c4ccccc4)[nH]n3c(=O)c2C1` [PAT1inh-B01], the IC50 was determined as 0.26 µM.
